pIC50: −log10 of the molar value.
Legend:
Type in all cases: cell-based
[1] = test system: human smooth muscle cells; test: in vitro human smooth muscle cell culture testing, incorporated thymidine (proliferation); conditions: for % Proliferation After One Hr Exposure: 1 hr exposure; for % Proliferation After Three Hr Exposure: 3 hr exposure; for % Proliferation After Eight Hr Exposure: 8 hr exposure; for pIC50: Homo sapiens
Method: The amounts of incorporated thymidine for samples of Compound AR of varying concentrations (0.005, 0.01, 0.05, 0.1, 0.5, and 1 μM) and of rapamycin of varying concentrations (0.0005, 0.001, 0.01, and 0.1 μM) were measured after exposure for different times of 1, 3 and 8 hours. The IC50 for Compound AR and rapamycin were approximately 0.05 and 0.01 μM, respectively, after smooth muscle cells were exposed to Compound AR and rapamycin for the shorter periods of 1 and 3 hours (as shown in Table 1 and FIG. 8). The IC50 of Compound AR and rapamycin was approximately 0.005 and 0.001 μM, respectively, after smooth muscle cells were exposure to Compound AR and rapamycin for 8 hours. The IC50 of Compound AR was approximately five times higher than that of rapamycin.
The amounts of incorporated thymidine for samples of 17, 18-29, 30-bis-epoxide macrocyclic lactone of varying concentrations (0.005, 0.01, 0.05, 0.1, 0.5, and 1 μM) and of Compound AR of varying concentrations (0.0005, 0.001, 0.01, and 0.1 μM) were measured after exposure for 8 hours. The IC50 of 17, 18-29, 30-bis-epoxide macrocyclic lactone and Compound AR was approximately 0.1 and 0.005 μM, respectively, after smooth muscle cells were exposed to 17, 18-29, 30-bis-epoxide macrocyclic lactone and Compound AR for 8 hours (FIG. 13). The IC50 of 17, 18-29, 30-bis-epoxide macrocyclic lactone was approximately 20 times higher than that of Compound AR.

[2] = test system: MMP-9 released by activated macrophages; test: cytokine inhibition in LPS-activated macrophages, ELISA: MMP-9; conditions: 10 nM
Method: (§1) In cell culture studies, macrophages were activated to secrete cytokines such as 11-6, MMP-9, MCP-1 and IL-10 by treating the cells to E Coli lippopolysaccharide (LPS). Inhibition of these cytokines upon treatment of the activated macrophages with Compound AR and rapamycin with 10 nM concentration was tested using ELISA assay. The inhibition of pro-inflammatory and cell proliferation and migration inducing cytokines upon exposure to the macrocyclic lactone is presented in FIG. 12A. The inhibition of anti-inflammatory cytokine IL-10 upon exposure to macrocyclic lactone Compound AR and Sirolimus are presented in FIG. 12B.

[3] = test system: IL-6 released by activated macrophages; test: cytokine inhibition in LPS-activated macrophages, ELISA: IL-6; conditions: 10 nM
Method: as §1

[4] = test system: IL-10 released by activated macrophages; test: cytokine inhibition in LPS-activated macrophages, ELISA: IL-10; conditions: 10 nM
Method: as §1

[5] = test system: MCP-1 released by activated macrophages; test: cytokine inhibition in LPS-activated macrophages, ELISA: MCP-1; conditions: 10 nM
Method: as §1

Structure (SMILES): CO[C@@H]1C[C@H](C[C@@H](C)[C@@H]2CC(=O)[C@H](C)/C=C(\C)[C@@H](O)[C@@H](OC)C(=O)[C@H](C)C[C@H](C)/C=C/C=C/C=C(\C)C(O)C[C@@H]3CC[C@@H](C)C(O)(O3)C(=O)C(=O)N3CCCC[C@H]3C(=O)O2)CC[C@H]1O (stereo partly drawn) [Compound AR, 16-O-Demethyl Macrocyclic Lactone]
- % Proliferation After One Hr Exposure ([1]; 0.005 micromolar): 84%
- % Proliferation After Three Hr Exposure ([1]; 0.005 micromolar): 69%
- % Proliferation After Eight Hr Exposure ([1]; 0.005 micromolar): 52%
- % Proliferation After One Hr Exposure ([1]; 0.01 micromolar): 66%
- % Proliferation After Three Hr Exposure ([1]; 0.01 micromolar): 56%
- % Proliferation After Eight Hr Exposure ([1]; 0.01 micromolar): 38%
- % Proliferation After One Hr Exposure ([1]; 0.05 micromolar): 54%
- % Proliferation After Three Hr Exposure ([1]; 0.05 micromolar): 50%
- % Proliferation After Eight Hr Exposure ([1]; 0.05 micromolar): 40%
- % Proliferation After One Hr Exposure ([1]; 0.1 micromolar): 55%
- % Proliferation After Three Hr Exposure ([1]; 0.1 micromolar): 52%
- % Proliferation After Eight Hr Exposure ([1]; 0.1 micromolar): 36%
- % Proliferation After One Hr Exposure ([1]; 0.5 micromolar): 57%
- % Proliferation After Three Hr Exposure ([1]; 0.5 micromolar): 48%
- % Proliferation After Eight Hr Exposure ([1]; 0.5 micromolar): 35%
- pIC50 ([1]; smooth muscle cells exposed for 8 hours): ~8.30
- pIC50 ([1]; smooth muscle cells exposed for the shorter periods of 1 and 3 hours): ~7.30
- production of MMP-9 [2]: significantly reduced the production
- inhibition of release of IL-6 [3]: did not show and significant inhibition
- production of anti-inflammatory cytokine IL-10 [4]: inhibit the production
- production of MCP-1 [5]: significantly reduced the production

Source: patent US10123996B2, “Macrocyclic lactone compounds and methods for their use” (Elixir Medical Corporation, priority 2006, dated 2018)
